{"source": "patent US8198293B2", "about": "“Oxymatrine compositions and related methods for treating and preventing chronic infectious diseases” (priority 2008, dated 2012)", "key": {"[1]": {"system": "enterovirus infection (ME/CFS patients)", "experiment": "Oxymatrine open-label, controlled clinical study in ME/CFS patients with enterovirus infection", "type": "in vivo, human", "procedure": "An open-label, controlled study was conducted on patients who fulfilled the international criteria for myalgic encephalomyelitis (ME)/chronic fatigue syndrome (CFS) and had virological evidence of enterovirus infection.\nOne hundred patients took oxymatrine at dose of 200-300 mg twice a day with or without food for a minimum of three months. Patients who could not complete the course due to side effects or intolerance were considered as failures (intent-to-treat analysis). Of the first group, 52% ( 52/100) responded to oxymatrine, as compared to 6% ( 7/114) of the control groups (p<0.000001, x^2 test). Of the next 104 patients, 52% responded to treatment. […] Fifty-three percent ( 57/107) of patients with elevated coxsackie virus B (CVB) and echovirus (Ech) antibody responded to therapy and 50% ( 49/97) of patients with non-typeable EV infections improved (NS, x^2 test). Fifty-two percent ( 47/91) of patients with positive EV protein in stomach biopsies responded, whereas 56% ( 5/9) of patients with negative biopsies responded (NS, x^2 test).\nRelapse of symptoms was common after discontinuing oxymatrine. Fifty-nine percent ( 19/32) of patients (4 male, 15 female) relapsed within two days to one month after discontinuation of oxymatrine. Eighty-seven percent ( 13/15) of patients who relapsed responded to restart of oxymatrine. Subsequent responders were continued on oxymatrine beyond six months.\nA small percentage ( 2/204) of patients had transient increase in potassium, which returned to normal without specific treatment. A small percentage of patients ( 2/204) had elevated blood pressure that prompted discontinuation of therapy. […] Transient, moderate increase in pre-existing symptoms were reported by more than 50% of the patients but most patients continued to take the herbs at the same or reduced dose. Twenty patients (10%) stopped oxymatrine within the first eight weeks due to intolerable side effects. […]"}, "[2]": {"system": "cytokine gene expression (Th1/Th2)", "experiment": "Cytokine gene expression study before and during/after oxymatrine", "type": "in vivo, human", "from_the_text": "FIG. 4 graphically illustrates a cytokine gene expression study before and after oxymatrine (RQ is the gene expression ratio).\nFIG. 5 graphically illustrates cytokine gene expression of interleukin-12P35+P40/interleukin-10 in tissue from CFS patients at the start of (pre-oxymatrine) and during oxymatrine therapy (n=17).\nA cytokine gene expression study on blood samples before (Sample 2) and after (Sample 3) taking oxymatrine for 15 months in one patient, is graphically illustrated in FIG. 4. […] FIG. 5 illustrates that neutralizing antibodies CBV 3 and CBV 4 were obtained serially over a three year period (performed by ARUP laboratory, Salt Lake City, Utah)."}, "enterovirus protein": {"system": "enterovirus protein", "experiment": "Immunoperoxidase staining of stomach biopsy for enterovirus protein (5D8/1)", "type": "in vivo, human", "conditions": "one patient (case 5), before vs after taking oxymatrine for 6 months; correlated with symptomatic improvement", "from_the_text": "FIG. 2 illustrates the infected human stomach (biopsy of case 5 stained with 5D8/1) before treatment with oxymatrine.\nFIG. 3 illustrates the stomach biopsy of case 5 stained with 5 D8/1 after taking oxymatrine for 6 months.\nFIG. 2 illustrates immunoperoxidase staining for enterovirus protein in a stomach biopsy before oxymatrine therapy for one patient. […] The decrease in viral protein correlated with significant symptomatic improvement."}, "enterovirus": {"system": "enterovirus", "experiment": "Case reports: diarrhea with viral/enterovirus protein in colon biopsy (Examples 11, 12)", "type": "in vivo, human", "from_the_text": "A person developed continuing watery diarrhea, as many as twenty episodes a day, and mild fatigue for three months. Laboratory studies and stool work-up were completely negative. […] They failed Asacol therapy.\nA person developed severe watery diarrhea for two months. Stool evaluation was unremarkable. […] They continued to do well for six months on the medication. A decrease of medication to half the dose cause a relapse of the symptoms, which resolved after increasing the dosage."}, "coxsackievirus B": {"system": "coxsackievirus B", "conditions": "in vitro, cell cultures; mechanism not defined; cited from earlier work"}, "chronic hepatitis B": {"system": "chronic hepatitis B", "conditions": "oral, after one year of treatment; cited from earlier work"}, "[3]": {"conditions": "side effects in 176 patients having taken oxymatrine"}, "[4]": {"conditions": "blood samples of one patient before and after 15 months of oxymatrine (FIG. 4)"}}}
{"smiles": "O=C1CCC[C@@H]2[C@H]3CCC[N@+]4([O-])CCC[C@@H](CN12)[C@@H]34", "note": "[oxymatrine]", "values": [{"measurement": "relapsed patients who responded to restart of oxymatrine", "setting": "[1]; 13/15", "result": "Eighty-seven"}, {"measurement": "patients relapsed after discontinuation of oxymatrine", "setting": "[1]; 19/32, within two days to one month after discontinuation", "result": "Fifty-nine"}, {"measurement": "duration of the increase in symptoms", "setting": "[1]; better tolerated when dose increased gradually over 2-3 weeks or longer", "result": "a few days to several weeks"}, {"measurement": "patients reporting transient, moderate increase in pre-existing symptoms", "setting": "[1]; both, human, in vivo", "result": "more than 50%"}, {"measurement": "changes of other chemistry parameters and complete blood counts (CBC)", "setting": "[1]; compared to baseline values", "result": "no significant changes"}, {"measurement": "tolerability in most of the patients", "setting": "[1]; except variable increase of pre-existing symptoms during the first 1-2 days of maximal doses", "result": "tolerated oxymatrine well"}, {"measurement": "patients responded to oxymatrine", "setting": "[1]; first group (52/100), 200-300 mg twice a day, minimum three months, intent-to-treat, control 6% (7/114)", "result": 52, "unit": "%"}, {"measurement": "serious complications during therapy", "setting": "[1]; human, in vivo", "result": "No serious complications"}, {"measurement": "patients responded to treatment", "setting": "[1]; next 104 patients", "result": 52, "unit": "%"}, {"measurement": "patients with elevated blood pressure that prompted discontinuation of therapy", "setting": "[1]; of 204 patients", "result": "2/204"}, {"measurement": "patients with transient increase in potassium", "setting": "[1]; of 204 patients, returned to normal without specific treatment", "result": "2/204"}, {"measurement": "patients responded to therapy", "setting": "[1]; patients with elevated coxsackie virus B and echovirus antibody (57/107)", "result": "Fifty-three"}, {"measurement": "patients improved", "setting": "[1]; patients with non-typeable EV infections (49/97)", "result": 50, "unit": "%"}, {"measurement": "patients responded", "setting": "[1]; patients with positive EV protein in stomach biopsies (47/91)", "result": "Fifty-two"}, {"measurement": "Diffuse rashes, % of total patients", "setting": "[1]; [3]", "result": "<1", "unit": "%"}, {"measurement": "Dry eyes and mouth, % of total patients", "setting": "[1]; [3]", "result": 1, "unit": "%"}, {"measurement": "Fevers, % of total patients", "setting": "[1]; [3]", "result": 2, "unit": "%"}, {"measurement": "Herpes simplex virus outbreak after discontinuation, % of total patients", "setting": "[1]; [3]", "result": 1, "unit": "%"}, {"measurement": "Increase in blood pressure, % of total patients", "setting": "[1]; [3]", "result": 1, "unit": "%"}, {"measurement": "Increase in edema, % of total patients", "setting": "[1]; [3]", "result": 1, "unit": "%"}, {"measurement": "Increased abdominal pain, % of total patients", "setting": "[1]; [3]", "result": 6, "unit": "%"}, {"measurement": "Increased bladder symptoms, % of total patients", "setting": "[1]; [3]", "result": 2, "unit": "%"}, {"measurement": "Increased diarrhea, % of total patients", "setting": "[1]; [3]", "result": 4, "unit": "%"}, {"measurement": "Increased dizziness, % of total patients", "setting": "[1]; [3]", "result": 2, "unit": "%"}, {"measurement": "Increased fatigue, % of total patients", "setting": "[1]; [3]", "result": 4, "unit": "%"}, {"measurement": "Increased headache, % of total patients", "setting": "[1]; [3]", "result": 8, "unit": "%"}, {"measurement": "Increased insomnia, % of total patients", "setting": "[1]; [3]", "result": 1, "unit": "%"}, {"measurement": "Increased myalgia, % of total patients", "setting": "[1]; [3]", "result": 30, "unit": "%"}, {"measurement": "Increased nausea, % of total patients", "setting": "[1]; [3]", "result": 6, "unit": "%"}, {"measurement": "Increased palpitation, chest pain, % of total patients", "setting": "[1]; [3]", "result": 3, "unit": "%"}, {"measurement": "Increased polyarthralgia, % of total patients", "setting": "[1]; [3]", "result": 1, "unit": "%"}, {"measurement": "Increased sinus congestion, % of total patients", "setting": "[1]; [3]", "result": 3, "unit": "%"}, {"measurement": "Inflammation of skin lesion, % of total patients", "setting": "[1]; [3]", "result": 1, "unit": "%"}, {"measurement": "New rashes, % of total patients", "setting": "[1]; [3]", "result": "<1", "unit": "%"}, {"measurement": "Seizure (petit mal), % of total patients", "setting": "[1]; [3]", "result": "<1", "unit": "%"}, {"measurement": "Weight gain, % of total patients", "setting": "[1]; [3]", "result": 1, "unit": "%"}, {"measurement": "outcome in one patient with severe increase in febrile response and marked worsening of symptoms", "setting": "[1]; toward the end of three months of medication", "result": "lasting remission"}, {"measurement": "patients who stopped oxymatrine due to intolerable side effects", "setting": "[1]; within the first eight weeks, twenty patients", "result": 10, "unit": "%"}, {"measurement": "Th1 cytokines gene expression (interleukin-2, interleukin-12, interleukin-15)", "setting": "[2]; [4]", "result": "significant increase"}, {"measurement": "regulatory Th2 cytokine gene expression (interleukin-10)", "setting": "[2]; [4]", "result": "significant decrease"}, {"measurement": "increase of the interleukin-12P35+P40/interleukin-10 gene expression ratio", "setting": "[2]; seven responders of n=17 CFS patients, pre-oxymatrine vs during therapy (FIG. 5)", "result": "greater than 2 fold"}, {"measurement": "interleukin-12P35+P40/interleukin-10 gene expression ratio", "setting": "[2]; ten non-responders of n=17 CFS patients (FIG. 5)", "result": "remained the same or decreased"}, {"measurement": "enterovirus protein in stomach biopsy by staining with monoclonal antibody 5D8/1", "setting": "enterovirus protein", "result": "significant reduction in viral protein"}, {"measurement": "diarrhea outcome", "setting": "enterovirus; Example 11 patient, oxymatrine 200 mg bid", "result": "resolved completely in a few days"}, {"measurement": "diarrhea outcome", "setting": "enterovirus; Example 12 patient", "result": "resolved within one week"}, {"measurement": "growth inhibition of coxsackievirus B", "setting": "coxsackievirus B", "result": "growth inhibition"}, {"measurement": "overall cure rate", "setting": "chronic hepatitis B", "result": "about 40%"}]}
